From patent US11180484B2, “Pyrazole derivatives as plasma kallikrein inhibitors” (KALVISTA PHARMACEUTICALS LIMITED, priority 2016, dated 2021)

Assays:
Format in all cases: biochemical
Human KLK1 = Human KLK1 (Homo sapiens (Human), UniProt P06870); assay: Determination of the IC50 for KLK1; settings: 25° C., substrate H-DVal-Leu-Arg-AFC
Description: (§1) Human KLK1 (Callbiochem) was incubated at 25° C. with the fluorogenic substrate H-DVal-Leu-Arg-AFC and various concentrations of the test compound. Residual enzyme activity (initial rate of reaction) was determined by measuring the change in […] at 410 nm and the IC50 value for the test compound was determined.

Human FXIa = Human FXIa (Homo sapiens (Human), UniProt P03951); assay: Determination of the % inhibition / IC50 for FXIa; settings: for IC50: 25° C., substrate Z-Gly-Pro-Arg-AFC
Chain of Human FXIa (P03951 388-625): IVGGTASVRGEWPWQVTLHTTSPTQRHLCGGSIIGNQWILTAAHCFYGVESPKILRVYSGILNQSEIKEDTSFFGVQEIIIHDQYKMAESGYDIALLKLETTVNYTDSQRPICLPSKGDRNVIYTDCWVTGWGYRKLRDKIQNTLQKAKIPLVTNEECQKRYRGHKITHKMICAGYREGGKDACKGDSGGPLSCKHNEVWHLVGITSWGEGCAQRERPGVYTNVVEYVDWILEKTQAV
Chain of Human FXIa (P03951 19-387): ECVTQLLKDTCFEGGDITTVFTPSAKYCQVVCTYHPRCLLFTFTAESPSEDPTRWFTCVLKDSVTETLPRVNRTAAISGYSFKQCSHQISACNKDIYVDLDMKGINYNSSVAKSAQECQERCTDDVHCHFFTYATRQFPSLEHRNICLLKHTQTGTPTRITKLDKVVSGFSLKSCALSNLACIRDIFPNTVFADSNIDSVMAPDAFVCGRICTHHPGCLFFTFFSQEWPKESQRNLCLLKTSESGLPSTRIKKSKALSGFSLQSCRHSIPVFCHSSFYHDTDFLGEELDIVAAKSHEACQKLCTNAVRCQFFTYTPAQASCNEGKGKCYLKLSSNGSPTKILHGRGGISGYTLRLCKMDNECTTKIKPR
Description: FXIa inhibitory activity in vitro was determined using standard published methods (see e.g. Johansen et al., Int. J. Tiss. Reac. 1986, 8, 185; Shori et al., Biochem. Pharmacol., 1992, 43, 1209; Sturzebecher et al., Biol. Chem. Hoppe-Seyler, 1992, 373, 1025). […]

Human plasma kallikrein = Human plasma kallikrein (Homo sapiens (Human), UniProt P03952); assay: Determination of the IC50 for plasma kallikrein; settings: 25° C., substrate H-DPro-Phe-Arg-AFC; read-out: IC50 (human PKal)
Chain of Human plasma kallikrein (P03952 391-638): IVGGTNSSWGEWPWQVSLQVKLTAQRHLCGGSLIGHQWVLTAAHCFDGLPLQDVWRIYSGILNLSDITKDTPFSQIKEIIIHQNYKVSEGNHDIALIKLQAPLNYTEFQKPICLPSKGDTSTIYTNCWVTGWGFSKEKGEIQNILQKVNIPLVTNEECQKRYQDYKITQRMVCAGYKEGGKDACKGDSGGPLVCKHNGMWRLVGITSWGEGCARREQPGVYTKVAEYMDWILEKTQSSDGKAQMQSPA
Chain of Human plasma kallikrein (P03952 20-390): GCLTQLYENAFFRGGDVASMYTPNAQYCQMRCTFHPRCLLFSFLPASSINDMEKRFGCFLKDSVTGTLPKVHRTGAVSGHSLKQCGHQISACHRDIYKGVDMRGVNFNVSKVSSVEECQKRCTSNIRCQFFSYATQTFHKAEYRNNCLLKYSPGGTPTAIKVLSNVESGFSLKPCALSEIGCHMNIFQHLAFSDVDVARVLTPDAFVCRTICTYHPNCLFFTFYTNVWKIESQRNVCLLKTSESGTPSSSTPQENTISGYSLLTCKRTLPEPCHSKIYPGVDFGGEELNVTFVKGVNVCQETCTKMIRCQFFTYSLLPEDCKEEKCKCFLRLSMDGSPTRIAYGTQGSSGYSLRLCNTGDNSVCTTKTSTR
Description: as §1, with “plasma kallikrein (Protogen)” for “KLK1 (Callbiochem)”, “H-DPro-Phe-Arg-AFC” for “H-DVal-Leu-Arg-AFC”

Human Factor XIIa = Human Factor XIIa (Homo sapiens (Human), UniProt P00748); assay: Factor XIIa inhibitory activity in vitro; settings: 25° C., substrate H-DPro-Phe-Arg-AFC; read-out: IC50 (human FXIIa)
Chain of Human Factor XIIa (P00748 373-615): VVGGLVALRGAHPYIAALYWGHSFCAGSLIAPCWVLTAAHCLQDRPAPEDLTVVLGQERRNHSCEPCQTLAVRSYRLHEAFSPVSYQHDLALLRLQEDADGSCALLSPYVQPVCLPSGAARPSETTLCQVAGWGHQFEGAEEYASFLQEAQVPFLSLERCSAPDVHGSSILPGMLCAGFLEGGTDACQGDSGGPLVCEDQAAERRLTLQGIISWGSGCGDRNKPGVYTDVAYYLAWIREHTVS
Description: as §1, with “Factor XIIa (Enzyme Research Laboratories)” for “KLK1 (Callbiochem)”, “H-DPro-Phe-Arg-AFC” for “H-DVal-Leu-Arg-AFC”

Chain of Human KLK1 (P06870 25-262): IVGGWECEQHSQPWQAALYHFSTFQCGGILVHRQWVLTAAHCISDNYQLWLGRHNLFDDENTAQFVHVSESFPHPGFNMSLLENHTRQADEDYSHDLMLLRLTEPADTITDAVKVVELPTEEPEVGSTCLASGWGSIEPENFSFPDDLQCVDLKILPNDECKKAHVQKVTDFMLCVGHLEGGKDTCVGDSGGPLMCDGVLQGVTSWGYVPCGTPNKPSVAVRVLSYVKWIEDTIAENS

Compound	IC50 (Human KLK1)	IC50 (Human FXIa)	IC50 (Human plasma kallikrein)	IC50 (Human Factor XIIa)	inhibition at 40 µM (Human FXIa; 40 μM test compound, read-out: % Inhibition @ 40 μM (human FXIa))
COCc1nn(Cc2ccc(Cn3ccccc3=O)cc2)cc1C(=O)NCc1cc(OC)ncn1 [Example 4, 3-(methoxymethyl)-N-[(6-methoxypyrimidin-4-yl)methyl]-1-({4-[(2-oxopyridin-1-yl)methyl]phenyl}methyl)pyrazole-4-carboxamide]	> 4 µM	> 40 µM	2.3 µM	> 4 µM	
COCc1nn(Cc2ccc(Cn3ccccc3=O)cc2)cc1C(=O)NCc1cc(OC)ncc1C#N [Example 8, N-[(5-cyano-2-methoxypyridin-4-yl)methyl]-3-(methoxymethyl)-1-({4-[(2-oxopyridin-1-yl)methyl]phenyl}methyl)pyrazole-4-carboxamide]	> 4 µM	> 40 µM	0.162 µM	> 4 µM	
COCc1nn(Cc2ccc(Cn3ccccc3=O)cc2)cc1C(=O)NCc1nccc(OC)n1 [Example 10, 3-(methoxymethyl)-N-[(4-methoxypyrimidin-2-yl)methyl]-1-({4-[(2-oxopyridin-1-yl)methyl]phenyl}methyl)pyrazole-4-carboxamide]	> 40 µM	> 40 µM	2.45 µM	> 40 µM	
COCc1nn(Cc2ccc(Cn3ccccc3=O)cc2)cc1C(=O)NCc1ncc(C)c(OC)c1C [Example 11, N-[(4-methoxy-3,5-dimethylpyridin-2-yl)methyl]-3-(methoxymethyl)-1-({4-[(2-oxopyridin-1-yl)methyl]phenyl}methyl)pyrazole-4-carboxamide]	> 40 µM	> 40 µM	0.035 µM	> 40 µM	
COCc1nn(Cc2ccc(Cn3ccccc3=O)cc2)cc1C(=O)NCc1ncccc1C#N [Example 13, N-[(3-cyanopyridin-2-yl)methyl]-3-(methoxymethyl)-1-({4-[(2-oxopyridin-1-yl)methyl]phenyl}methyl)pyrazole-4-carboxamide]	> 4 µM	> 40 µM	2.95 µM	> 4 µM	
COCc1nn(Cc2ccc(Cn3ccccc3=O)cc2)cc1C(=O)NCc1ncc(Cl)cc1C#N [Example 16, N-[(5-chloro-3-cyanopyridin-2-yl)methyl]-3-(methoxymethyl)-1-({4-[(2-oxopyridin-1-yl)methyl]phenyl}methyl)pyrazole-4-carboxamide]	> 40 µM	> 40 µM	0.187 µM	> 40 µM	
COCc1nn(Cc2ccc(Cn3ccccc3=O)cc2)cc1C(=O)NCc1ncc(Cl)cc1F [Example 17, N-[(5-chloro-3-fluoropyridin-2-yl)methyl]-3-(methoxymethyl)-1-({4-[(2-oxopyridin-1-yl)methyl]phenyl}methyl)pyrazole-4-carboxamide]	> 40 µM	> 40 µM	0.143 µM	> 40 µM	
COCc1nn(Cc2ccc(Cn3ccccc3=O)cc2)cc1C(=O)NCc1cc(OC)c(C)cn1 [Example 20, N-[(4-methoxy-5-methylpyridin-2-yl)methyl]-3-(methoxymethyl)-1-({4-[(2-oxopyridin-1-yl)methyl]phenyl}methyl)pyrazole-4-carboxamide]	> 40 µM	> 40 µM	3.22 µM	> 40 µM	0%
COCc1nn(Cc2ccc(Cn3ccccc3=O)cc2)cc1C(=O)NCc1ncc(F)cc1F [Example 26, N-[(3,5-difluoropyridin-2-yl)methyl]-3-(methoxymethyl)-1-({4-[(2-oxopyridin-1-yl)methyl]phenyl}methyl)pyrazole-4-carboxamide]	> 40 µM	> 40 µM	1.76 µM	> 40 µM	
COCc1nn(Cc2ccc(Cn3ccccc3=O)cc2)cc1C(=O)NCc1nc(C)ccc1F [Example 27, N-[(3-fluoro-6-methylpyridin-2-yl)methyl]-3-(methoxymethyl)-1-({4-[(2-oxopyridin-1-yl)methyl]phenyl}methyl)pyrazole-4-carboxamide]	> 40 µM	> 40 µM	0.775 µM	> 40 µM	
COCc1nn(Cc2ccc(Cn3ccccc3=O)cc2)cc1C(=O)NCc1nccc(C)c1F [Example 28, N-[(3-fluoro-4-methylpyridin-2-yl)methyl]-3-(methoxymethyl)-1-({4-[(2-oxopyridin-1-yl)methyl]phenyl}methyl)pyrazole-4-carboxamide]	> 40 µM	> 40 µM	0.163 µM	> 40 µM	
COCc1nn(Cc2ccc(Cn3ccccc3=O)cc2)cc1C(=O)NCc1nccc(C)c1Cl [Example 29, N-[(3-chloro-4-methylpyridin-2-yl)methyl]-3-(methoxymethyl)-1-({4-[(2-oxopyridin-1-yl)methyl]phenyl}methyl)pyrazole-4-carboxamide]	> 40 µM	> 40 µM	0.217 µM	> 40 µM	
COCc1nn(Cc2ccc(Cn3ccccc3=O)cc2)cc1C(=O)NCc1nn(C)cc1Cl [Example 34, N-[(4-chloro-1-methylpyrazol-3-yl)methyl]-3-(methoxymethyl)-1-({4-[(2-oxopyridin-1-yl)methyl]phenyl}methyl)pyrazole-4-carboxamide]	> 40 µM	> 40 µM	0.709 µM		
COCc1nn(Cc2ccc(Cn3ccccc3=O)cc2)cc1C(=O)NCc1cc(OC)cc(OC)c1 [Reference Example A, N-(3,5-Dimethoxybenzyl)-3-(methoxymethyl)-1-(4-((2-oxopyridin-1(2H)-yl)methyl)benzyl)-1H-pyrazole-4-carboxamide, reference compound]	> 10 µM	> 40 µM			
COCc1nn(Cc2cnc3cc(Cl)ccc3c2)cc1C(=O)NCc1cccc(OC)c1F [Reference Example C, 1-(7-Chloro-quinolin-3-ylmethyl)-3-methoxymethyl-1H-pyrazole-4-carboxylic acid 2-fluoro-3-methoxy-benzylamide, reference compound]	> 10 µM	> 40 µM			
COCc1nn(Cc2ccc(Cn3ccccc3=O)cc2)cc1C(=O)NCc1nccc(OC)c1F [Reference Example D, 3-Methoxymethyl-1-[4-(2-oxo-2H-pyridin-1-ylmethyl)-benzyl]-1H-pyrazole-4-carboxylic acid (3-fluoro-4-methoxy-pyridin-2-ylmethyl)-amide, reference compound]	> 40 µM	> 40 µM		> 40 µM	
COCc1nn(Cc2ccc(Cn3ccccc3=O)cc2)cc1C(=O)NCc1c(C#N)ccc(OC)c1F [Reference Example E, 3-Methoxymethyl-1-[4-(2-oxo-2H-pyridin-1-ylmethyl)-benzyl]-1H-pyrazole-4-carboxylic acid 6-cyano-2-fluoro-3-methoxy-benzylamide, reference compound]		> 40 µM		> 40 µM	
COCc1nn(Cc2ccc(Cn3ccccc3=O)cc2)cc1C(=O)NCc1c(F)ccc(OC)c1C(F)F [Reference Example F, 3-Methoxymethyl-1-[4-(2-oxo-2H-pyridin-1-ylmethyl)-benzyl]-1H-pyrazole-4-carboxylic acid 2-difluoromethyl-6-fluoro-3-methoxy-benzylamide, reference compound]		> 40 µM			
COc1cccc(CNC(=O)c2cn(Cc3ccc(N4CCCC4)nc3)nc2C(F)(F)F)c1F [Reference Example G, 1-(6-Pyrrolidin-1-yl-pyridin-3-ylmethyl)-3-trifluoromethyl-1H-pyrazole-4-carboxylic acid 2-fluoro-3-methoxy-benzylamide, reference compound]	> 10 µM	> 40 µM			
